From patent US20250243196A1, “CITRON KINASE INHIBITORS” (The Cleveland Clinic Foundation, priority 2021, published 2025)

Legend:
Test in all cases: KinaseProfiler panel
Format in all cases: biochemical
Conditions in all cases: activity remaining
[1] = biological target: ErbB4(h) (Homo sapiens (Human), UniProt Q15303); design: dose or concentration left out as unconfirmed
[2] = biological target: CaMKK2(h) (Homo sapiens (Human), UniProt Q96RR4); design: dose or concentration left out as unconfirmed
[3] = biological target: GSK3β(h) (Homo sapiens (Human), UniProt P49841); design: dose or concentration left out as unconfirmed
[4] = biological target: CDK5/p25(h) (Homo sapiens (Human), UniProt Q00535); design: dose or concentration left out as unconfirmed
[5] = biological target: TRB2(h) (Homo sapiens (Human), UniProt Q92519); design: dose or concentration left out as unconfirmed
[6] = biological target: PKR(h) (Homo sapiens (Human), UniProt P19525); design: dose or concentration left out as unconfirmed
[7] = biological target: DAPK2(h) (Homo sapiens (Human), UniProt Q9UIK4)
[8] = biological target: HIPK1(h) (Homo sapiens (Human), UniProt Q86Z02); design: dose or concentration left out as unconfirmed
[9] = biological target: PKD3(h) (Homo sapiens (Human), UniProt O94806); design: dose or concentration left out as unconfirmed
[10] = biological target: STK25(h) (Homo sapiens (Human), UniProt O00506); design: dose or concentration left out as unconfirmed
[11] = biological target: JNK1α1(h) (Homo sapiens (Human), UniProt P45983); design: dose or concentration left out as unconfirmed
[12] = biological target: MEKK3(h) (Homo sapiens (Human), UniProt Q99759); design: dose or concentration left out as unconfirmed
[13] = biological target: MARK1(h) (Homo sapiens (Human), UniProt Q9P0L2); design: dose or concentration left out as unconfirmed
[14] = biological target: Plk3(h) (Homo sapiens (Human), UniProt Q9H4B4); design: dose or concentration left out as unconfirmed
[15] = biological target: MRCKα(h) (Homo sapiens (Human), UniProt Q5VT25); design: dose or concentration left out as unconfirmed
[16] = biological target: PAK5(h) (Homo sapiens (Human), UniProt Q9P286); design: dose or concentration left out as unconfirmed
[17] = biological target: JAK2(h) (Homo sapiens (Human), UniProt O60674); design: dose or concentration left out as unconfirmed
[18] = biological target: ALK4(h) (Homo sapiens (Human), UniProt P36896); design: dose or concentration left out as unconfirmed
[19] = biological target: CK1γ2(h) (Homo sapiens (Human), UniProt P78368); design: dose or concentration left out as unconfirmed
[20] = biological target: Met(h) (Homo sapiens (Human), UniProt P08581); design: dose or concentration left out as unconfirmed
[21] = biological target: IRR(h) (Homo sapiens (Human), UniProt P14616); design: dose or concentration left out as unconfirmed
[22] = biological target: JNK3(h) (Homo sapiens (Human), UniProt P53779); design: dose or concentration left out as unconfirmed
[23] = biological target: GCK(h) (Homo sapiens (Human), UniProt Q12851); design: dose or concentration left out as unconfirmed
[24] = biological target: ASK1(h) (Homo sapiens (Human), UniProt Q99683); design: dose or concentration left out as unconfirmed
[25] = biological target: ZIPK(h) (Homo sapiens (Human), UniProt O43293); design: dose or concentration left out as unconfirmed
[26] = biological target: FAK(h) (Homo sapiens (Human), UniProt Q05397); design: dose or concentration left out as unconfirmed
[27] = biological target: PI3 Kinase (p110d/p85a)(h) (Homo sapiens (Human), UniProt O00329); design: dose or concentration left out as unconfirmed
[28] = biological target: CK2α2(h) (Homo sapiens (Human), UniProt P19784); design: dose or concentration left out as unconfirmed
[29] = biological target: DAPK1(h) (Homo sapiens (Human), UniProt P53355); design: dose or concentration left out as unconfirmed

TRB2(h), sequence (Q92519 whole entry): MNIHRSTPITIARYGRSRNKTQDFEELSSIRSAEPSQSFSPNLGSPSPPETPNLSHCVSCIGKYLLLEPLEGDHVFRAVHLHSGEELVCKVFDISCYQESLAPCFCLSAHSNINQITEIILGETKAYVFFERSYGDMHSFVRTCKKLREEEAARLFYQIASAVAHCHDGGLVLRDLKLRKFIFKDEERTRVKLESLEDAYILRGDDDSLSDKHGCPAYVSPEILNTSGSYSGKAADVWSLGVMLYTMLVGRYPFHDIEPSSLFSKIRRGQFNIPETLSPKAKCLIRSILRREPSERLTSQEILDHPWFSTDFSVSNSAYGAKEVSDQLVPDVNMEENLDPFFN
JNK3(h), sequence (P53779 whole entry): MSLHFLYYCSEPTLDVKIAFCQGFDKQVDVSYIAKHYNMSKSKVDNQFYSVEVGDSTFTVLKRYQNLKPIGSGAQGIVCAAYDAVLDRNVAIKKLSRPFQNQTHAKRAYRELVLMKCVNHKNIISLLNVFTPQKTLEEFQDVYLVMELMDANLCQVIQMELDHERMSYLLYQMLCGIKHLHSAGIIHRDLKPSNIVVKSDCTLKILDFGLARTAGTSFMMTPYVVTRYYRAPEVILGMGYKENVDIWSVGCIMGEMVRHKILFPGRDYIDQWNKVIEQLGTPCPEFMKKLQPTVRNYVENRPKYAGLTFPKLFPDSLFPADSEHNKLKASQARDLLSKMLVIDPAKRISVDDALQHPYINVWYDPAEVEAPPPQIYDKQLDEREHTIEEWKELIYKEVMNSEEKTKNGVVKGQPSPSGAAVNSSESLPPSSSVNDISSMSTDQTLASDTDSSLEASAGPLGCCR
ALK4(h), sequence (P36896 24-505): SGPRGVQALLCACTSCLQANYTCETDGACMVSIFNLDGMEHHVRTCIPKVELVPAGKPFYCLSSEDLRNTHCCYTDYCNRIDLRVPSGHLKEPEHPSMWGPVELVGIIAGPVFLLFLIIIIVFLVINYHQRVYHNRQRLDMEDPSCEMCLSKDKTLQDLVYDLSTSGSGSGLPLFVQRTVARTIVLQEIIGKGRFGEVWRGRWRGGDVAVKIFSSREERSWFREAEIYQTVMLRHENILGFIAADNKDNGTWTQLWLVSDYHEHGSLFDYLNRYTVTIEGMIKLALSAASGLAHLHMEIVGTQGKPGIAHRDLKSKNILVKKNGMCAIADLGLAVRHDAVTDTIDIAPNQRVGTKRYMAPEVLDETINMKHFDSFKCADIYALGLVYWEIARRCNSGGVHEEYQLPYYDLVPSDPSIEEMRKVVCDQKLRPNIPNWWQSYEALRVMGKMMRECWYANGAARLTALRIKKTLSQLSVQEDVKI
GCK(h), sequence (Q12851 whole entry): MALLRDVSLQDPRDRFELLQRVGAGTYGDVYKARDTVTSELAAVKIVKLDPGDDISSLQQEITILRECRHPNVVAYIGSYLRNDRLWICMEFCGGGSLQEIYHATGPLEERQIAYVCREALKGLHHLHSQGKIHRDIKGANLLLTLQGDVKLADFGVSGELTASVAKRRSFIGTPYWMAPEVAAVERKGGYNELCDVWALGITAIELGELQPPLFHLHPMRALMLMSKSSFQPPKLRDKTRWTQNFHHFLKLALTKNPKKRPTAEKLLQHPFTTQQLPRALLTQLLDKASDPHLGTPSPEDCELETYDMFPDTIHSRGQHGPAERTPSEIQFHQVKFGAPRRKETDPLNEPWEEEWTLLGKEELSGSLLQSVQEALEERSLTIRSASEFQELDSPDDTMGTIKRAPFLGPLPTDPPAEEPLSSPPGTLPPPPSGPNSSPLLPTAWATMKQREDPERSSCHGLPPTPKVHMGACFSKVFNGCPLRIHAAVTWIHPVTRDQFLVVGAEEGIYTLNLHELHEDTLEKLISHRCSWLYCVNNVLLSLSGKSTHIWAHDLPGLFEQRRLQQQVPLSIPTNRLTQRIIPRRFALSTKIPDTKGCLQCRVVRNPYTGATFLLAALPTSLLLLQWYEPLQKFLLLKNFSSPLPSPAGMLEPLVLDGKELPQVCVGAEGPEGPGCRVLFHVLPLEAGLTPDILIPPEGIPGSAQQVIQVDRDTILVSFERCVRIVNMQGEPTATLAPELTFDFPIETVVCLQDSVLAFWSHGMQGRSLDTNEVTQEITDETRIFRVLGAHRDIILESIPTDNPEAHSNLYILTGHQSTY
MEKK3(h), sequence (Q99759 whole entry): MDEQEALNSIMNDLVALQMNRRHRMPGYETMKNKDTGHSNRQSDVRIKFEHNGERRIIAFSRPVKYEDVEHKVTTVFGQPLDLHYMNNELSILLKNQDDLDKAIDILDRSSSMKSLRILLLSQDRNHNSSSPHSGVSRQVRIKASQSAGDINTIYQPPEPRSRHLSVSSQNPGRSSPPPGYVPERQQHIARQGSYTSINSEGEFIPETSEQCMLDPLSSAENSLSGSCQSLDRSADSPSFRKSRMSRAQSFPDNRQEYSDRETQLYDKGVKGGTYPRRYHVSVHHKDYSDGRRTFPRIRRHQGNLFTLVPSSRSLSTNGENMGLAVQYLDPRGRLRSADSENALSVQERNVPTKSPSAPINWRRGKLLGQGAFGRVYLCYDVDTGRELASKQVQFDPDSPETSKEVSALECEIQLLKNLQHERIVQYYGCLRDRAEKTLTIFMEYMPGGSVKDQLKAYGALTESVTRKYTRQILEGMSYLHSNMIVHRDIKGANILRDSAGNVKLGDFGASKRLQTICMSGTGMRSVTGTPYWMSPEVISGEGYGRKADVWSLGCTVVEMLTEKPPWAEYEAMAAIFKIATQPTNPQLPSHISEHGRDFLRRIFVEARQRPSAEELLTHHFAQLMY
GSK3β(h), sequence (P49841 whole entry): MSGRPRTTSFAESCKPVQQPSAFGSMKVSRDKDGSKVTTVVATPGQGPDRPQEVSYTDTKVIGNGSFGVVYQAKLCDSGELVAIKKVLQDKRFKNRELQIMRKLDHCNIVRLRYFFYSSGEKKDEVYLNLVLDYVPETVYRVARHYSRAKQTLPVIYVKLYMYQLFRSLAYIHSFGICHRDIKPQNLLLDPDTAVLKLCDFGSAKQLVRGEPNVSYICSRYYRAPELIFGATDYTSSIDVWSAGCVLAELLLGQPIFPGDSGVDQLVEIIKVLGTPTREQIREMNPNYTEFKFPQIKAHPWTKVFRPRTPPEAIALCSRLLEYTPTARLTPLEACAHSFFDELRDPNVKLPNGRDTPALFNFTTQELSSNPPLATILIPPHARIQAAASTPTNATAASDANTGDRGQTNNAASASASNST
IRR(h), sequence (P14616 27-1297): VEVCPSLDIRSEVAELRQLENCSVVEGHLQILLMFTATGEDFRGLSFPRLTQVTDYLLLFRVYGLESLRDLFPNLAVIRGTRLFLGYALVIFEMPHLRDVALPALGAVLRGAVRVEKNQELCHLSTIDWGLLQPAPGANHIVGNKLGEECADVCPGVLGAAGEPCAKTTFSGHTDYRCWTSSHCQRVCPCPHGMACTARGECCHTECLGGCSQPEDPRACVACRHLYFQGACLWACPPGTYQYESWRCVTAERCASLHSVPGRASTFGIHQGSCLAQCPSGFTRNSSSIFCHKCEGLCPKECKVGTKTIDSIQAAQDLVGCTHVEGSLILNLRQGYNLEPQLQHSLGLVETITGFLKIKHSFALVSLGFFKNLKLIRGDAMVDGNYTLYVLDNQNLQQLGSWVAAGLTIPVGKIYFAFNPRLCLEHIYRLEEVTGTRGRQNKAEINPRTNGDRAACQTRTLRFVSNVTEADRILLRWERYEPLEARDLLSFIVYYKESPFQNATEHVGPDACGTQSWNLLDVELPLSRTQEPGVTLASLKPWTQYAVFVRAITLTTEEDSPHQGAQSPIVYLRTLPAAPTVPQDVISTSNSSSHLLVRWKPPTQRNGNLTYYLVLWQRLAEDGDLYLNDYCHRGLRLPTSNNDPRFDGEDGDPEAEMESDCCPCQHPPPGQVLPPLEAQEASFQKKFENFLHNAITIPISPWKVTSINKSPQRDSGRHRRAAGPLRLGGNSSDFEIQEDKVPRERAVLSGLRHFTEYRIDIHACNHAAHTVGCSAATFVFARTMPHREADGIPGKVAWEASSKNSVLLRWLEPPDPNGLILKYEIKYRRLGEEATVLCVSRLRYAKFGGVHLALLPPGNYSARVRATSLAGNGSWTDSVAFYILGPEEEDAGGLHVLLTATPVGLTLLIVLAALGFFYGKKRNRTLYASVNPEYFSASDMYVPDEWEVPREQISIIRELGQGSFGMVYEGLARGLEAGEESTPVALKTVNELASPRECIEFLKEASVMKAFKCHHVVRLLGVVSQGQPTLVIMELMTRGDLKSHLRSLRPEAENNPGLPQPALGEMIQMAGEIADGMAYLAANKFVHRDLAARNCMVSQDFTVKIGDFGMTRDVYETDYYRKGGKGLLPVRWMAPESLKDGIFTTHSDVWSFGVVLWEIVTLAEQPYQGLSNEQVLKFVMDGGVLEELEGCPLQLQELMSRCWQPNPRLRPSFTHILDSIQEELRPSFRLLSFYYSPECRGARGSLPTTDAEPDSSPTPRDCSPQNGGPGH
CaMKK2(h), sequence (Q96RR4 whole entry): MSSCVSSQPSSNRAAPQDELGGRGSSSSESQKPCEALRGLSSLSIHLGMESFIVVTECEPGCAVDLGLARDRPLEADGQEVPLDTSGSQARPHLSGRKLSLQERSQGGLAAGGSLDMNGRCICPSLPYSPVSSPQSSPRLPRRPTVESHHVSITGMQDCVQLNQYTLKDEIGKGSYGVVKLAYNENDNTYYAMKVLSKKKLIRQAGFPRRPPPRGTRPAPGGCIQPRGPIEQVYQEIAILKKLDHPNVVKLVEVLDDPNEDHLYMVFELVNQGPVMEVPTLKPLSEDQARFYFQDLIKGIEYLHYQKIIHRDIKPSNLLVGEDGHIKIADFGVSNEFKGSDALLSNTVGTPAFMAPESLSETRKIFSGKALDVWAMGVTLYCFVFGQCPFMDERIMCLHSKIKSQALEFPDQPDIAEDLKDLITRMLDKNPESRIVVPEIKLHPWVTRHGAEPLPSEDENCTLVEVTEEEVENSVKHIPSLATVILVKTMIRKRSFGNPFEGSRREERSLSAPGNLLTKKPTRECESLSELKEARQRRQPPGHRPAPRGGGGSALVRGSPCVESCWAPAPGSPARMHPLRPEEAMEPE

In the case of Cc1cc2c(-c3ccc(NC(=O)[C@H](N)CC(C)(C)C)cc3C)ccnc2[nH]1 [Compound F-90, (2R)-2-Amino-4,4-dimethyl-N-[3-methyl-4-(2-methyl-1H-pyrrolo[2,3-b]pyridin-4-yl)phenyl]pentanamide], the “% Activity” value [1] is reported as 94%, the “% Activity” value [2] is reported as 96% and the “% Activity” value [3] is reported as 93%. For the same molecule, the “% Activity” value [4] was 72%, the “% Activity” value [5] was 104% and the “% Activity” value [6] was 85%. For the same molecule, the “% Activity” value [7] was 109%, the “% Activity” value [8] was 100% and the “% Activity” value [9] was 97%. For the same molecule, the “% Activity” value [10] was 92%, the “% Activity” value [11] was 110% and the “% Activity” value [12] was 107%. The “% Activity” value [13] was 106%, the “% Activity” value [14] was 100% and the “% Activity” value [15] was 94%. The “% Activity” value [16] was 87%, the “% Activity” value [17] was 104% and the “% Activity” value [18] was 94%. For the same molecule, the “% Activity” value [19] was 97%, the “% Activity” value [20] was 90% and the “% Activity” value [21] was 110%. For the same molecule, the “% Activity” value [22] was 88%, the “% Activity” value [23] was 118% and the “% Activity” value [24] was 100%. The “% Activity” value [25] was 94%, the “% Activity” value [26] was 96% and the “% Activity” value [27] was 110%. The “% Activity” value [28] was 115% and the “% Activity” value [29] was 82%.
